EC50 data for 64 compounds are collected here from PubChem BioAssay AID588605 (Sanford-Burnham Center for Chemical Genomics, 2011).

Active and inactive are the calls of the source. How the calls were made is not given here.

The assay deals with Alkaline phosphatase, tissue-nonspecific isozyme (Homo sapiens) (UniProt P05186). The experiment in a line: human TNAP activity change by analogs – biochemical, set 2, selectivity assay for mouse IAP activator project, SAR follow-up (AID 588605). The conditions noted are these: TNAP enzyme assay, SAR counter-screen for mouse IAP activators.
Chain of Alkaline phosphatase, tissue-nonspecific isozyme (Homo sapiens) (P05186 whole entry, looked up): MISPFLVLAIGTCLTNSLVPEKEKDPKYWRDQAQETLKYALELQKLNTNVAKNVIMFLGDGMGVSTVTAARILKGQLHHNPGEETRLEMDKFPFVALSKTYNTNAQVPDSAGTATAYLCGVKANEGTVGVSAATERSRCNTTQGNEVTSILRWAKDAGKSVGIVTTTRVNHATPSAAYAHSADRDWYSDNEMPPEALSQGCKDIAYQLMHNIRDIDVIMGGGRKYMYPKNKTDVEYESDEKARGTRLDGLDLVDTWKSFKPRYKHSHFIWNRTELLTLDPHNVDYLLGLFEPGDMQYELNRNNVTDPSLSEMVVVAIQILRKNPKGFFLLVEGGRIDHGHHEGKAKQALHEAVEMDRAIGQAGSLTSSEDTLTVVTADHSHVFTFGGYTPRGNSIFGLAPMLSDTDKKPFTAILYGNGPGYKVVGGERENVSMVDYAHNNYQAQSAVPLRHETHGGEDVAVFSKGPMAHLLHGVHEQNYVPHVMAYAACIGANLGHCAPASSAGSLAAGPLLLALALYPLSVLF
Regarding `O=C(NC(=S)Nc1cc(S(=O)(=O)N2CCOCC2)ccc1O)c1ccco1`, the EC50 (in general, the concentration giving half of the maximal effect) was > 100 µM (inactive).

For `Cc1ccc(CNC(=S)Nc2cccc(S(=O)(=O)N(C)C)c2)cc1`, the EC50 was > 100 µM (inactive).

With `CN(C)S(=O)(=O)c1cccc(NC(=S)NC(C)(C)CC(C)(C)C)c1`, the EC50 was 91.5 µM.

Turning to `O=S(=O)(c1ccc(NC(=S)NCCC(c2ccccc2)c2ccccc2)cc1)N1CCCCC1`, the EC50 was 47.2 µM.

For `CCOc1cc(CCNC(=S)Nc2ccc(S(=O)(=O)N(C)C)cc2)ccc1OC`, the EC50 was > 100 µM (inactive).

As to `CN(C)S(=O)(=O)c1cccc(NC(=S)NCc2ccc(Cl)cc2)c1`, the EC50 is 92.5 µM.

Consider `O=S(=O)(c1ccc(NC(=S)NCC(c2ccccc2)c2ccccc2)cc1)N1CCCC1`, for which the EC50 is 19.9 µM.

`CC1CC(NC(=S)Nc2cccc(S(=O)(=O)N(C)C)c2)CC(C)N1` (centres undefined): the EC50 is > 100 µM (inactive).

Consider `CN(C)S(=O)(=O)c1cccc(NC(=S)NCCC(c2ccccc2)c2ccccc2)c1`, for which the EC50 is > 100 µM (inactive).

In the case of `CN(C)S(=O)(=O)c1cccc(NC(=S)NCCC(=O)N2CCCC2)c1`, the EC50 was > 100 µM (inactive).

On to `Cc1ccc(S(=O)(=O)N(C)C)cc1NC(=S)NC1CCN(Cc2ccccc2)CC1`, for which the EC50 was > 100 µM (inactive).

Consider `CCN(CC)CCCNC(=S)Nc1cccc(S(=O)(=O)N(C)C)c1`, for which the EC50 was > 100 µM (inactive).

`CN(C)S(=O)(=O)c1cccc(NC(=S)NCCc2cccc(Br)c2)c1`: the EC50 is 57.9 µM.

For `O=S(=O)(c1ccc(NC(=S)NCCC(c2ccccc2)c2ccccc2)cc1)N1CCCC1`, the EC50 is 49.8 µM.

Regarding `O=c1c2ccccc2[nH]c(=S)n1-c1cccc(S(=O)(=O)N2CCCC2)c1`, the EC50 was > 100 µM (inactive).

As to `CN(C)S(=O)(=O)c1ccc(NC(=S)NCCC(c2ccccc2)c2ccccc2)cc1`, the EC50 was 38.6 µM.

`Cc1ccc(S(=O)(=O)N(C)C)cc1NC(=S)NC(C)CCCC(C)C` (centres undefined): the EC50 is 57.9 µM.

Turning to `CC1CCN(S(=O)(=O)c2ccc(NC(=S)NCCC(c3ccccc3)c3ccccc3)cc2)CC1`, the EC50 is 18.9 µM.

As to `COc1ccccc1CNC(=S)Nc1ccc(S(=O)(=O)N(C)C)cc1`, the concentration giving a half-maximal response (EC50) was 89.9 µM.

For `O=S(=O)(c1ccc(NC(=S)NCc2cccc(F)c2)cc1)N1CCCCC1`, the EC50 was 53.6 µM.

For the compound `CCN(CC)c1ccc(C(=O)NC(=S)Nc2cc(S(=O)(=O)N3CCOCC3)ccc2-n2cncn2)cc1`, the EC50 is > 100 µM (inactive).

Turning to `COc1ccc(CNC(=S)Nc2ccc(S(=O)(=O)N3CCCCC3)cc2)cc1OC`, the EC50 is 75.3 µM.

As for `CN(C)S(=O)(=O)c1cccc(NC(=S)NCCCN2CCCC2=O)c1`, the EC50 was > 100 µM (inactive).

In the case of `CN(C)S(=O)(=O)c1ccc(NC(=S)NC(c2ccccc2)c2ccccc2)cc1`, the EC50 was 18.4 µM.

Consider `O=S(=O)(c1ccc(NC(=S)NCC(c2ccccc2)c2ccccc2)cc1)N1CCCCC1`, for which the EC50 is 25.5 µM.

With `O=C(CCc1ccccc1)NC(=S)Nc1cccc(S(=O)(=O)N2CCCC2)c1`, the EC50 is > 100 µM (inactive).

Consider `CN(C)S(=O)(=O)c1ccc(NC(=S)NCC(c2ccccc2)c2ccccc2)cc1`, for which the EC50 is 95.2 µM.

Turning to `CN(C)CC(C)(C)CNC(=S)Nc1cccc(S(=O)(=O)N(C)C)c1`, the EC50 was > 100 µM (inactive).

With `Cc1ccc(S(=O)(=O)N(C)C)cc1NC(=S)NC(=O)C12CC3CC(CC(C3)C1)C2`, the EC50 was > 100 µM (inactive).

As to `CN(C)S(=O)(=O)c1cccc(NC(=S)NCCc2ccccc2)c1`, the concentration for a half-maximal effect (EC50) is 97.8 µM.

`Cc1ccccc1CNC(=S)Nc1ccc(S(=O)(=O)N(C)C)cc1`: the EC50 is 75.6 µM.

For `CC(CCc1ccccc1)NC(=S)Nc1cccc(S(=O)(=O)N(C)C)c1` (centres undefined), the concentration for a half-maximal effect (EC50) is 62.8 µM.

On to `CCN(CC)S(=O)(=O)c1ccc(NC(=S)NCCC(c2ccccc2)c2ccccc2)cc1`, for which the EC50 is 29.7 µM.

Consider `CCN(CC)S(=O)(=O)c1ccc(NC(=S)NCC(c2ccccc2)c2ccccc2)cc1`, for which the EC50 is 45.8 µM.

`CN(C)S(=O)(=O)c1cccc(NC(=S)NCCN2CCCC2)c1`: the EC50 is > 100 µM (inactive).

On to `Cc1ccc(CNC(=S)Nc2ccc(S(=O)(=O)N(C)C)cc2)cc1`, for which the EC50 was 86.1 µM.

In the case of `COc1ccc(CCNC(=S)Nc2ccc(S(=O)(=O)N3CCCCC3)cc2)cc1OC`, the EC50 is 94.4 µM.

Take `CN(C)S(=O)(=O)c1cccc(NC(=S)NCCCn2ccnc2)c1`: the EC50 was > 100 µM (inactive).

As to `CN(C)S(=O)(=O)c1ccc(NC(=S)NCCc2ccccc2)cc1`, the EC50 was > 100 µM (inactive).

`CN(CCc1ccccc1)C(=S)Nc1cccc(S(=O)(=O)N(C)C)c1`: the EC50 was > 100 µM (inactive).

Regarding `CN(C)S(=O)(=O)c1cccc(NC(=S)NCCc2cccc(F)c2)c1`, the EC50 is > 100 µM (inactive).

Regarding `O=S(=O)(c1ccc(NC(=S)NC(c2ccccc2)c2ccccc2)cc1)N1CCCCC1`, the EC50 was 11 µM.

As for `Cc1ccc(S(=O)(=O)N(C)C)cc1NC(=S)NCCCn1ccnc1`, the EC50 is > 100 µM (inactive).

Turning to `COc1cccc(CNC(=S)Nc2ccc(S(=O)(=O)N(C)C)cc2)c1`, the EC50 is > 100 µM (inactive).

Regarding `CC(CNC(=S)Nc1cccc(S(=O)(=O)N(C)C)c1)N1CCN(c2ccccc2)CC1` (centres undefined), the EC50 was > 100 µM (inactive).

Regarding `CN(C)S(=O)(=O)c1ccc(NC(=S)NCc2ccc(Cl)cc2)cc1`, the EC50 is > 100 µM (inactive).

As for `CC1CCN(S(=O)(=O)c2ccc(NC(=S)NC(c3ccccc3)c3ccccc3)cc2)CC1`, the EC50 is > 100 µM (inactive).

Regarding `CCN(CC)S(=O)(=O)c1ccc(NC(=S)NC(c2ccccc2)c2ccccc2)cc1`, the EC50 was 29 µM.

In the case of `CN(CCc1ccccn1)C(=S)Nc1cccc(S(=O)(=O)N(C)C)c1`, the EC50 was > 100 µM (inactive).

As to `Cc1ccc(C)c(NC(=S)Nc2ccc(S(=O)(=O)N3CCCCC3)cc2)c1`, the EC50 is > 100 µM (inactive).

As for `CN(C)S(=O)(=O)c1cccc(NC(=S)NC(c2ccccc2)c2ccccc2)c1`, the EC50 was 20 µM.

With `CN(C)S(=O)(=O)c1cccc(NC(=S)NCCc2cccc(O)c2)c1`, the EC50 is > 100 µM (inactive).

Take `CN(C)CCCNC(=S)Nc1cccc(S(=O)(=O)N(C)C)c1`: the EC50 is > 100 µM (inactive).

With `O=S(=O)(c1ccc(NC(=S)NC(c2ccccc2)c2ccccc2)cc1)N1CCCC1`, the EC50 is 26.1 µM.

On to `CN(C)S(=O)(=O)c1ccc(NC(=S)NCCN2CCCC2)cc1`, for which the EC50 is > 100 µM (inactive).

Consider `CN(C)S(=O)(=O)c1ccc(NC(=S)NCCc2cccc(Br)c2)cc1`, for which the EC50 was 65.5 µM.

In the case of `COc1cccc(CCNC(=S)Nc2cccc(S(=O)(=O)N(C)C)c2)c1`, the EC50 is 90.3 µM.

Regarding `Cc1ccc(S(=O)(=O)N(C)C)cc1NC(=S)NC(C)CCC(C)C` (centres undefined), the EC50 was 87.1 µM.

With `CN(C)S(=O)(=O)c1cccc(NC(=S)NCC(c2ccccc2)c2ccccc2)c1`, the EC50 was 22.9 µM.

`COc1ccc(CCNC(=S)Nc2ccc(S(=O)(=O)N3CCCCC3)cc2)cc1`: the half-maximal effective concentration (EC50) was 40.1 µM.

With `O=C(NC(=S)Nc1cc(S(=O)(=O)N2CCOCC2)ccc1N1CCOCC1)c1ccco1`, the EC50 is > 100 µM (inactive).

Regarding `CN(C)S(=O)(=O)c1cccc(NC(=S)NCCc2ccc(F)cc2)c1`, the EC50 was > 100 µM (inactive).

`CN(C)S(=O)(=O)c1ccc(NC(=S)NCCc2cccc(O)c2)cc1`: the EC50 is > 100 µM (inactive).

Take `CN(C)S(=O)(=O)c1cccc(NC(=S)NCCc2ccc(Br)cc2)c1`: the 50% effective concentration (EC50) was 86.7 µM.
